Data on one molecule can be found in patent publication US5372944A, “Method for conversion of halogenated hydrocarbons to halohydrins” (The Dow Chemical Company, priority 1993, dated 1994).

The subject of assay [1] is dehalogenase in cell free extracts of Rhodococcus Rhodochrous, TDTM-003. Briefly: Primary screen of dehalogenase activity in cell free extracts of TDTM-003. It counts as biochemical. The method, then: Following overnight growth, 50 μl of 1-chlorobutane was added to induce the dehalogenase. After 24 hours induction, cells were harvested by centrifugation, resuspended in cold 10mM Tris sulfate/1 mM disodium EDTA, pH=7.5, and disrupted by sonication. Cell debris was removed by centrifugation at 10,000 rpm for 30 minutes, cell free extracts dialyzed overnight against the same buffer, and assayed without dilution for dehalogenase activity.
Free chloride or bromide was assayed qualitatively using a chloride electrode (Orion), or quantitatively using the colorimetric method (430 nm) described by J. G. Bergmann, et al., Anal. Chem., 29:241-243 (1957).
(§1) Hydrolytic dehalogenase enzyme activity was evaluated by adding an appropriate amount of cell free extract or enzyme preparation to 5.0 mL of 100 mM glycine buffer, pH=9.0 in a 7 mL glass vial. The halogenated substrate (5.0 μl) and a small stir bar were added, and the vial capped. Reaction was initiated by transfer to a 30° C. water bath equipped with a magnetic stirrer. Periodically 1.0 mL samples were removed and assayed for free halide. Rates were determined after correcting for non-enzymatic hydrolysis with an appropriate blank. A standard curve was prepared using sodium chloride.
Preliminary studies were performed on cell free extracts of TDTM-003 to evaluate the enzyme substrate selectivity, and the results of this study are shown in Table 2.

Assay [2] deals with TDTM-003. The assay is described as follows: Utilization of carbon containing compounds for growth in liquid culture, TDTM-003. In kind it is cell-based, Rhodococcus species. The conditions noted are these: strain TDTM-003, liquid culture.
The target in assay [3] is partially purified TDTM-003 dehalogenase (Rhodococcus sp. TDTM0003, UniProt P59336). The assay is described as follows: Substrate profile of partially purified TDTM-003 dehalogenase. It counts as biochemical, Rhodococcus species TDTM-003. The conditions noted are these: corrected for non-enzymatic hydrolysis. The method, then: as §1
Sequence of partially purified TDTM-003 dehalogenase (P59336 whole entry): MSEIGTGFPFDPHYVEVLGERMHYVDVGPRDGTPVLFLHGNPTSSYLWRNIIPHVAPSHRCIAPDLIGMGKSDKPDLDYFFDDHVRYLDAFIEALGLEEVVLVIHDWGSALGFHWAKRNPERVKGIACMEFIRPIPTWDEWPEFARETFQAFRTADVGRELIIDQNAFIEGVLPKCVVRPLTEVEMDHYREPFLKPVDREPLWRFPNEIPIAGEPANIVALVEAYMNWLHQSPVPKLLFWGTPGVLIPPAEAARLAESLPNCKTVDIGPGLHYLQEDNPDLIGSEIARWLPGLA
Frozen pellets from 2 liters of culture were thawed into 150 mL of 10 mM Tris sulfate buffer, pH=7.5 containing 1 mM disodium EDTA. This buffer was used throughout the entire purification. The suspension was sonicated for approximately 1 hour with ice cooling using a Microson Ultrasonic Cell Disrupter and centrifuged at 10,000 rpm for 15 minutes to remove cell debris. Supernatant was removed and the sonication/centrifugation repeated with fresh buffer to increase enzyme yield. Overall sonication efficiency was monitored by absorbence at 280 nm. Cell free extracts were combined and brought slowly to 30 percent saturation with solid ammonium sulfate. The suspension was centrifuged at 10,000 rpm for 30 minutes and the pellet discarded. The supernatant was brought to 70 percent saturation with solid ammonium sulfate and centrifugation repeated. Supernatant was discarded and the pellet taken up in a small volume of buffer and dialyzed overnight against 1 liter of the same. The preparation was applied to a 1.5×15cm column of DEAE-Sephadex equilibrated with the same buffer elution carried out with a 1 liter gradient from 0 to 400 mM ammonium sulfate. Fractions of about 7-8 mLs were collected. The active fractions were pooled and brought to 90 percent saturation with ammonium sulfate. The pellet was taken up in a minimal amount of buffer, ultrafiltered to 2.5 mL using 10,000 MWCO Novacell Ultrafiltration cell, and applied to a 1.5×90 cm Sephadex G-100 column. Elution was by gravity at 90 cm and fractions of 7-8 mLs were collected. Active fractions were poled, brought to 30 percent saturation with ammonium sulfate, and applied to a 10 ml column of Butyl-agarose equilibrated in the same. Elution was performed with a 500 mL gradient from 30 percent-0 percent ammonium sulfate. Active fractions were pooled, dialyzed and used for substrate selectivity studies.
To evaluate the substrate selectivity of haloalkane dehalogenase from isolated Rhodococcus species, an enzyme preparation from the strain designated TDTM-003 was purified by the procedure described under General Experimental. This preparation provided a dehalogenase which was approximately 50 percent pure as estimated by SDS-PAGE and was free of interfering halohydrin dehalogenase activity.
The activity of this partially purified TDTM-003 dehalogenase preparation was evaluated against various chlorinated and brominated substrates. Each enzymatic rate was corrected for non-enzymatic hydroloysis.

Assay [4] relates to double mutants lacking both ADH and halohydrin dehalogenase activity. Briefly: Whole cell conversion of DCP, DCB and TCP by double mutants: kinetics, selectivity, enantioselectivity. The conditions noted are these: double mutants grown on succinate, induced with 1-chlorobutane. In kind it is cell-based, Rhodococcus species. The method, then: To evaluate kinetics and selectivity of various mutants with respect to conversion of the target halocarbons, 1,2-dichloropropane (DCP), 1,2-dichloro-butane (DCB) and 1,2,3-trichloropropane (TCP) cultures were first inoculated from slants into 25 mL nutrient media in a 125 mL flask and grown overnight. Five mL were inoculated into 50 mL of MM1X4P containing 5 g/L disodium succinate in a 250 mL flask. Following 4 hours of growth and again at 8 hours, 10 μl of 1-chlorobutane was added for induction of the dehalogenase. Following 24 hours growth, cells were harvested by centrifugation and resuspended into 50 mL of fresh sterile MM1X4P and transferred to a sterile 250 mL shake flask equipped with a bulb feeder as described by Gibson, et al., supra. DCP, DCB, and TCP were added to bulb feeders and reaction progress monitored by gas chromatography (GC). Throughout the protocol, volumes were modified as needed to provide higher concentrations of cells and/or to provide identical batches of induced cells for comparative studies.
(§2) For gas chromatography (GC) analysis of halogenated metabolites, cultures were centrifuged briefly to remove cells, saturated with sodium sulfate, and an equivalent volume of methylene chloride added. The suspension was vortexed vigorously, centrifuged to break the emulsion and the methylene chloride phase removed.
(§3) Analysis of all halocarbon substrates and products from culture broths was done by GC using a Hewlett Packard 5710 equipped with a 7671A Autoinjector with the following protocol:
Analysis for optical activity of microbially produced 2,3-dichloro-1-propanol was determined independently using two methods. […] Enantiomeric composition of DCP, DCB, and respective halohydrins can also be monitored using a derivatized cyclodexdrin gas chromatography column (CHIRALDEX™ type B-TA Column, Advanced Separation Technologies, Inc.). Enantiomeric excess was determined by a comparison of peak areas.
The double mutants were evaluated for conversion of DCP, DCB, and TCP following growth on succinate in the presence of 1-chlorobutane as an inducer of the dehalogenase. […]

The subject of assay [5] is TDTM-003-60-2-11. Briefly: Dehalogenation by double mutant strain TDTM-003-60-2-11 in shake flask with bulb feeder. It counts as cell-based, Rhodococcus sp. The conditions noted are these: 28° C., 150 rpm, substrate from bulb feeder.
From the text: as §2, §3
Dehalogenation of 1,2-dichloropropane by the double mutant strain of Rhodococcus sp., designated TDTM-003-60-2-11 was assayed in the following manner: 5 mL of an overnight culture (16 hours) were used as inoculum for 50 mL MM1X4P containing 5 g/L disodium succinate in a 250 mL flask. At 4 and 8 hours growth, 10 μL of 1-chlorobutane was added to induce the dehalogenase enzyme. Following 24 hours of growth, cells were harvested by centrifugation, resuspended into 50 mL of fresh MM1X4P, and transferred to a sterile 250 mL shake flask equipped with a bulb feeder. To the bulb feeder was added 1,2-dichloropropane and incubation continued at 28° C. and 150 rpm. […] The production of halohydrin products was monitored by gas chromatography. 1 -Chloro-2-propanol and 2-chloro-1-propanol accumulate linearly in the culture broth to 74 parts-per-million (ppm) (w/v) and 20 ppm (w/v) respectively after 120 hours. The overall rate of halohydrin production is 0.60 mg/g dry cells/hr.
The procedure described in Example 6 was followed except 1,2-dichlorobutanereplaced 1-chlorobutane in the bulb feeder.
The procedure described in Example 6 was followed except 1,2,3-trichloropropane replaced 1-chlorobutane in the bulb feeder.

Take `CC(Cl)CCl` (centres unmarked) [1,2-dichloropropane]: the “Relative Rate of Chloride Release, 1-chlorobutane = 100” value in assay [1] stood at 4.2. In assay [2], the “utilization as a sole source of carbon” value is “does not utilize”. Moreover, the “Relative Rate of Halogen Release, 1-Chlorobutane = 100” value in assay [3] is 5.800. Besides, the “in vivo rates of conversion” value in assay [4] is recorded as 0.30 mg product/g dry cells/hr. Moreover, the “overall rate of halohydrin production” value in assay [5] was determined as 0.60 mg/g dry cells/hr.
